Earlier results on two molecules are cited in patent US20150182483A1 (priority 2014, published 2015).

For data set [1] the following is noted: prior art, Kalogeropoulou et al. 2009.
For data set [2] the following is noted: intravenous, subjects.
The conditions of data set [3]: humans.
For data set [4] the following is noted: pH at which two predominant microspecies have net charge of zero.
The test system of data set [5] is chemical diabetes induced by streptozotocin.
[6] abbreviates: D-lysine treatment with streptozotocin diabetes.

Regarding `NCCCC[C@H](N)C(=O)O` [L-lysine], the “Response (hypoglycemic effect)” value in data set [1] is “Lower blood glucose”. In addition, in data set [2], the “Effect on blood ammonia” value is reported as “without significantly increasing blood ammonia” and the “Effect on blood glucose” value is given as “lowers blood glucose”. For the same molecule, the “Proposed upper limit (LD 50 not firmly established)” value in data set [3] is on record as 300-400 mg×kg^−1xd^−1. Besides, the “Isoelectric point (pI)” value in data set [4] was “approximately 9.7”.
In the case of `NCCCC[C@@H](N)C(=O)O` [D-lysine], in data set [5] (setting [6]), the Blood glucose was 25.1 mmol/L, the Glycated lens proteins is 4.90%, the Glycated serum proteins is listed as 1.4% and the HbA1 is recorded as 3.0%. The Urinary d-lysine in data set [5] (setting [6]) was 15.9 mmol/L. Also, in data set [5] (animal model), the Excretion result is reported as “excreted in the urine” and the Nephrotoxicity entry is listed as “not nephrotoxic”. Moreover, the “non-enzymatic glycation of hemoglobin, lens proteins and serum proteins” value in data set [5] (animal model of chemical diabetes induced by streptozotocin) is “decrease”.
